{GalNAc3} = triantennary N-acetylgalactosamine conjugate
Tests used:
[1] = system: Pnpla3^148M/M mice fed a NASH-inducing diet; assay: NAFLD activity score (NAS) and inflammation score from liver histology; type: in vivo, mouse; conditions: 14 weeks treatment, FIG. 4
Procedure: (§1) Male Pnpla3^148M/M mice (6-8 weeks of age) were fed a diet high in fat (40 kcal % fat (non-trans fat Primex Shortening), fructose (20 kcal %) and cholesterol (2%) (NASH diet; D16022301, Research Diets, New Brunswick, NJ) for 22 weeks. The mice were then assigned to study groups based on body weight, and fed the same NASH diet and dosed with either 1) control ASO+saline, 2) Pnpla3 ASO+saline, 3) control ASO+Cotadutide, or 4) Pnpla3 ASO+Cotadutide for 14 weeks. The ASOs were dosed at 5 mg/kg/week administered by two subcutaneous injections per week with saline as vehicle. Cotadutide was dosed at 1 nmol/kg administered by daily subcutaneous injections with saline as vehicle. […] Body weights were recorded during the study. […]
The NAFLD activity score (NAS) was determined according to the method reported by Kleiner et al (Kleiner et al Hepatology, 2005, DOI: 10.1002/hep.20701). […]
Differences between treatment groups were examined using 1-way ANOVA followed by Tukey's post-hoc tests (GraphPad Prism v.8.0.1., GraphPad Software, CA). Differences between treatment groups for the NAFLD activity score (NAS) derived from liver histology were analyzed by ordinal regression analyses followed by correction of family-wise error rate using the Šidák method. […]

[2] = system: Pnpla3^148M/M mice fed a NASH-inducing diet; assay: Liver fibrosis as liver collagen 1A1 content (immunohistochemistry); type: in vivo, mouse; conditions: 14 weeks treatment, compared to control ASO, FIG. 5
Procedure: as §1
Four μm thick formaldehyde-fixed, paraffin-embedded mouse liver sections (one lover section per mouse) were routinely stained with hematoxylin-eosin (HE). […] Slides were scanned into Panoramic Scan II (3Dhistech, Hungary), and digital images were analyzed using the image analysis program Visiopharm (version 2020.03.0.7300, Visiopharm, Hørsholm, Denmark) by detecting stained area per total section area for Galectin-3 or Collagen 1A1.

[3] = Body weight change in Pnpla3^148M/M knock-in mice fed a NASH-inducing diet; type: in vivo, mouse; conditions: Pnpla3^148M/M mice, NASH diet 36 weeks, treatment last 14 weeks; ASO 5 mg/kg/week s.c.; Cotadutide 1 nmol/kg daily s.c.; FIG. 1A
Procedure: All animal experiments were performed with humane care and were approved by the Gothenburg Ethics Committee for Experimental Animals in Sweden. The holding facility has received full accreditation from the Association for Assessment and Accreditation of Laboratory Animal Care (AAALAC). The human PNPLA3 […] mutation was introduced into the mouse Pnpla3 gene by replacing the isoleucine codon with a methionine codon in amino acid position 148 of the mouse Pnpla3 gene using homologous recombination as described before (Lindén et al Mol Metab, 2019, DOI: 10.1016/j.molmet.2019.01.013). Heterozygous Pnpla3^148I/M mice were intercrossed to generate experimental homozygous Pnpla3^148M/M knock-in mice for the pharmacology study. […]
as §1, with “weeks.” for “weeks. The ASOs were dosed at 5 mg/kg/week administered by two subcutaneous injections per week with saline as vehicle. Cotadutide was dosed at 1 nmol/kg administered by daily subcutaneous injections with saline as vehicle.”

[4] = system: mouse Pnpla3 mRNA; assay: Liver Pnpla3 mRNA by qPCR in Pnpla3^148M/M mice on NASH diet; type: in vivo; conditions: 14 weeks treatment, ASO 5 mg/kg/week s.c., FIG. 1B
Procedure: Male Pnpla3^148M/M mice (6-8 weeks of age) were fed a diet high in fat (40 kcal % fat (non-trans fat Primex Shortening), fructose (20 kcal %) and cholesterol (2%) (NASH diet; D16022301, Research Diets, New Brunswick, NJ) for 22 weeks. The mice were then assigned to study groups based on body weight, and fed the same NASH diet and dosed with either 1) control ASO+saline, 2) Pnpla3 ASO+saline, 3) control ASO+Cotadutide, or 4) Pnpla3 ASO+Cotadutide for 14 weeks. The ASOs were dosed at 5 mg/kg/week administered by two subcutaneous injections per week with saline as vehicle. Cotadutide was dosed at 1 nmol/kg administered by daily subcutaneous injections with saline as vehicle. […] Body weights were recorded during the study. At sacrifice, unfasted mice were euthanized with isoflurane (Forene, Abbot Scandinavia AB, Sweden), blood was collected and plasma isolated, livers were collected, and pieces (same position in the left lateral lobe for all mice) were fixed with 4% formaldehyde in PBS for histology or snap-frozen in liquid N2 and stored at −80° C.
RNA was isolated from snap-frozen liver tissue using the RNeasy Mini Kit (Qiagen, Germany). The cDNA templates were generated by reverse transcription with a cDNA kit (ThermoFisher Scientific, Stockholm, Sweden) and used for real-time quantitative PCR with the QuantStudio 7 Flex instrument (Applied Biosystems, Stockholm, Sweden). […]

Row | Compound | NAFLD activity score (NAS) compared to control ASO treated animals [1] | liver fibrosis measured as liver collagen 1A1 content [2] | body weight-gain during the treatment period compared to control ASO treated animals [3] | reduction of liver Pnpla3 mRNA levels [4]
1 | CCCCCCCCCCCCCCCC(=O)N[C@@H](CCC(=O)NCCCC[C@H](NC(=O)[C@H](CC(=O)O)NC(=O)[C@H](CO)NC(=O)[C@@H](NC(=O)[C@H](Cc1ccccc1)NC(=O)[C@@H](NC(=O)CNC(=O)[C@H](CCC(N)=O)NC(=O)[C@H](CO)NC(=O)[C@@H](N)Cc1c[nH]cn1)[C@@H](C)O)[C@@H](C)O)C(=O)N[C@@H](CO)C(=O)N[C@@H](CCC(=O)O)C(=O)N[C@@H](Cc1ccc(O)cc1)C(=O)N[C@@H](CC(C)C)C(=O)N[C@@H](CC(=O)O)C(=O)N[C@@H](CO)C(=O)N[C@@H](CCC(=O)O)C(=O)N[C@@H](CCCNC(=N)N)C(=O)N[C@@H](C)C(=O)N[C@@H](CCCNC(=N)N)C(=O)N[C@@H](CC(=O)O)C(=O)N[C@@H](Cc1ccccc1)C(=O)N[C@H](C(=O)N[C@@H](C)C(=O)N[C@@H](Cc1c[nH]c2ccccc12)C(=O)N[C@@H](CC(C)C)C(=O)N[C@@H](CCC(=O)O)C(=O)N[C@@H](C)C(=O)NCC(=O)NCC(=O)O)C(C)C)C(=O)O [Cotadutide] | reduced the NAS | tended to reduce the liver collagen 1A1 content | reduced body weight-gain | –
2 | Pnpla3 ASO: mouse cEt-modified 16-mer ASO targeting mouse Pnpla3 gene (5′-TATTTTTGGTGTATCC-3′, SEQ ID NO: 37), 5′-conjugated with triantennary GalNAc3 (5' {GalNAc3}, sugars by position and backbone not given here; cEt-modified) | reduced the NAS | tended to reduce liver fibrosis | but not Pnpla3 ASO treatment reduced body weight-gain | ≥ 97%
